{"source": "patent US5529984A", "about": "“Endoparasiticidal compositions based on open-chain hexadepsipeptides” (Bayer Aktiengesellschaft, priority 1993, dated 1996)", "tested_on": "Haemonchus contortus", "test": "In vivo nematode test Haemonchus contortus/sheep", "conditions": "sheep infected experimentally with Haemonchus contortus; pure active compound orally and/or intravenously; dose after which egg excretion with the faeces has stopped completely", "description": "Haemonchus contortus/sheep\nSheep infected experimentally with Haemonchus contortus were treated after the prepatency period of the parasite had elapsed. The active compounds were administered orally and/or intravenously in the form of the pure active compound.\nThe degree of effectiveness is determined by quantitatively determining the nematode eggs excreted with the faeces before and after the treatment.\nIf egg excretion has stopped completely after the treatment, this means that the nematodes were aborted or are damaged to such an extent that they no longer produce eggs (Dosis effective).\nActive compounds which have been tested and effective dosage rates (Dosis effective) can be seen from the table which follows: […]", "data": [{"smiles": "CCC(C)C(C(=O)OC(C)C(=O)N(C)C(C(=O)OC(C)C(=O)N(C)C(C(=O)OC(C)C(=O)O)C(C)CC)C(C)CC)N(C)C(=O)OCc1ccccc1", "note": "[Example 3, N-Benzyloxycarbonyl-N-methyl-L-isoleucyl-D -lactyl-N-methyl-L-isoleucyl-D-lactyl-N-methyl-n-isoleucyl-D-lactic acid]", "values": [{"measurement": "Dosis effective", "result": 10, "unit": "mg/kg"}]}]}
